The record followed here is PMC3792487 (Science (New York, N.Y.), 2012).

In this assay the target is dihydropteroate synthase (DHPS, FolP1) (Mycobacterium tuberculosis, UniProt P9WND1). The format is biochemical.

Molecules are shown by their SMILES.

Chain of dihydropteroate synthase (DHPS, FolP1) (P9WND1 whole entry): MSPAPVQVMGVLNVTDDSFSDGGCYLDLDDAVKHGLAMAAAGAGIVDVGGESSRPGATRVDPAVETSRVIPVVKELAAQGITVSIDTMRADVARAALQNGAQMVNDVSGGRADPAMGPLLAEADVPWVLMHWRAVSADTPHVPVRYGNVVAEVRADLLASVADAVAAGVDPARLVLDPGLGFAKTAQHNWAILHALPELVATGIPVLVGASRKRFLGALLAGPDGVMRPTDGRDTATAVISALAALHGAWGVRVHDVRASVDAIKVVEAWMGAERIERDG

Regarding `Nc1ccc(C(=O)O)c(O)c1` [PAS, para-aminosalicylic acid], the “in vitro turnover assay with purified recombinant enzyme” value was “purified recombinant enzymes confirmed that PAS was a kinetically and chemically competent substrate for M. tuberculosis FolP1”.
